From patent US12234211B2, “Cycloolefin substituted heteroaromatic compounds and their use” (HUTCHISON MEDIPHARMA LIMITED, priority 2017, dated 2025)
≈ marks a conversion by molar mass, not a printed value. Read-outs that look alike come from different tables or passages of the source.

Legend:
[1] = biological target: T1, IDH2-R140Q (Homo sapiens, UniProt P48735, R140Q); assay: Fluorescent determination of IDH2-R140Q cell activity (2-HG in U87MGR140Q cells); format: cell-based; conditions: 72 hours incubation, read-out: IC50 (2-HG inhibition)
T1 construct: expressed in transfected cells
T1 sequence (P48735 40-452 R140Q): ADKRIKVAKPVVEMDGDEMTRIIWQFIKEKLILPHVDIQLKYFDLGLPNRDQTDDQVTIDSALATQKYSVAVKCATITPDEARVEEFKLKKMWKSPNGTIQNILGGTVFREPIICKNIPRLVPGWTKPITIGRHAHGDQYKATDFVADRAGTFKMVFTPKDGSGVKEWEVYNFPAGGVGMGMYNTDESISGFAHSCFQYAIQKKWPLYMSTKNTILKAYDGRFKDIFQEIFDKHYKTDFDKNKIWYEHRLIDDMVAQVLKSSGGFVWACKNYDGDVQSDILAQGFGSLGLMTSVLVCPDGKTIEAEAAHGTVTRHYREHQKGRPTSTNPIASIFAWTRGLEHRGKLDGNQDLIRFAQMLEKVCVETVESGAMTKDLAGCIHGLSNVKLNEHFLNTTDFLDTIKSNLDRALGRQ

[2] = Determination of solubility in sodium phosphate buffers; format: physicochemical; conditions: for solubility at 1 h: aqueous buffer, thermodynamic from solid
Method: • Sample standard solution: About 3-5 mg test compound was accurately weighed and added into a 5 mL sample tube, 5 mL DMSO was added. Shaking and sonicating for 1 hour. • pH 2.1 sample solution: About 1 mg test compound was accurately weighed and added into a 1 mL sample tube, 1 mL pH 2.1 sodium phosphate buffer was added. Shaking. Adding test compound to the solution, if the solution is visually clear, till there is obvious insoluble in the solution. Sonicating for 1 hour. • pH 7.4 sample solution: About 1 mg test compound was accurately weighed and added into a 1 mL sample tube, 1 mL pH 7.4 sodium phosphate buffer was added. Shaking. Adding test compound to the solution, if the solution is visually clear, till there is obvious insoluble in the solution. Sonicating for 1 hour. 2. Determination • 1 mL sample standard solution was accurately pipetted into a HPLC tube. The peak area was determined by HPLC. • 0.5 mL pH 2.1 sample solution was filtered by syringe filter and was accurately pipetted into a HPLC tube, and 0.5 mL pH 2.1 sodium phosphate buffer was accurately added. Shaking. The peak area was determined by HPLC. • 0.5 mL pH 7.4 sample solution was filtered by syringe filter and was accurately pipetted into a HPLC tube, and 0.5 mL pH 7.4 sodium phosphate buffer was accurately added. Shaking. The peak area was determined by HPLC. • HPLC condition: • Instrument: Agilent 1200 • Column: Agilent SB-C18 5 u 4.6*150 mm • Mobile phase: • Phase A: Water (containing 0.1% formic acid) • Phase B: MeOH (containing 0.1% formic acid)

[3] = biological target: T2, IDH1-R132H (Homo sapiens, UniProt O75874, R132H); assay: Fluorescent determination of IDH1-R132H cell activity (2-HG in U87MGR132H cells); format: cell-based; conditions: 2-HG inhibition in U87MGR132H cells transfected with IDH1-R132H mutant plasmid
T2 construct: expressed in transfected cells; host or cells: U87MG cells (U87MGR132H)

[4] = Metabolic stability test in liver microsomes (mouse); format: in vitro ADME; conditions: percentage of remaining compound after incubation for 30 minutes vs 0 minute; 1 μM compound; 0.5 mg/mL liver microsomes; 37° C.
[5] = Metabolic stability test in liver microsomes (rat); format: in vitro ADME; conditions: percentage of remaining compound after incubation for 30 minutes vs 0 minute; 1 μM compound; 0.5 mg/mL liver microsomes; 37° C.
[6] = tested on: mutant IDH1; conditions: patients with AML or MDS having IDH1 mutations; cited from earlier work
[7] = pH 2.1 sodium phosphate buffer, read-out: Solubility pH 2.1
[8] = pH 7.4 sodium phosphate buffer, read-out: Solubility pH 7.4

T2 sequence (O75874 whole entry R132H): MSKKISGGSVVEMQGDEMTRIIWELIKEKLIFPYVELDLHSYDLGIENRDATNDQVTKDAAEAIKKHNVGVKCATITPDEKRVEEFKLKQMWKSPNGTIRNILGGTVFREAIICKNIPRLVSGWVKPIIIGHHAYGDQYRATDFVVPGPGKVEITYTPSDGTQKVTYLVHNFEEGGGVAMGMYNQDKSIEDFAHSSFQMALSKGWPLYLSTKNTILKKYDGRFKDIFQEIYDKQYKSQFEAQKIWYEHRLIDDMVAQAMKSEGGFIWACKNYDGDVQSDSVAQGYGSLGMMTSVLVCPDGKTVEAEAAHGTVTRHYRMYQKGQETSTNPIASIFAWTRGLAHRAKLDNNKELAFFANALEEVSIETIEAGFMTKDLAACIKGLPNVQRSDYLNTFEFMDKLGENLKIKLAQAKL

Row | SMILES | IC50 [1] | solubility at 1 h [2, 7] | solubility at 1 h [2, 8] | IC50 [3] | Mouse liver microsome stability [4] | Rat liver microsome stability [5] | patients with decreased levels of α-hydroxyglutaric acid (2HG) [6] | Solubility pH 2.1 ([2]; pH 2.1 sodium phosphate buffer) | Solubility pH 7.4 ([2]; pH 7.4 sodium phosphate buffer)
1 | CC(C)Nc1nc(N[C@H](C)C(F)(F)F)nc(C2=C(F)C(O)CC(C)(C)C2)n1 (mixture of isomers) [Compound 9] | 0.571 µM | > 1000 µg/mL | 85 µg/mL (≈ 217 µM) |  |  |  |  |  | 
2 | CC(C)Nc1nc(N[C@H](C)C(F)(F)F)nc(C2=CC(O)CC2)n1 (mixture of isomers) [Compound 125] | 1.67 µM | 448 µg/mL (≈ 1350 µM) | 19 µg/mL (≈ 57.3 µM) |  |  |  |  |  | 
3 | C[C@@H](Nc1nc(N[C@H](C)C(F)(F)F)nc(C2=C(F)C(O)C3(CC2)CC3)n1)C(F)(F)F (mixture of isomers) [Compound 219] | 0.707 µM | 190 µg/mL (≈ 429 µM) | 60 µg/mL (≈ 135 µM) | 3.23 µM |  |  |  |  | 
4 | C[C@@H](Nc1nc(N[C@H](C)C(F)(F)F)nc(C2=C(F)C(O)C(F)CC2)n1)C(F)(F)F (single isomer, unassigned) [Compound 97] | 0.052 µM | 77 µg/mL (≈ 177 µM) | 21 µg/mL (≈ 48.2 µM) | 0.047 µM | 89.5% | 98.5% |  |  | 
5 | N#Cc1ccnc(N2C(=O)CC[C@H]2C(=O)N(c2cncc(F)c2)[C@H](C(=O)NC2CC(F)(F)C2)c2ccccc2Cl)c1 [AG-120] |  |  |  |  |  |  | 98% |  | 
6 | OC1CCCCC(c2nc(NC3CC(F)(F)C3)nc(NC3CC(F)(F)C3)n2)=C1F (centres unmarked) [Compound 20] | 0.232 µM | 570 µg/mL (≈ 1360 µM) | 62 µg/mL (≈ 148 µM) |  |  |  |  |  | 
7 | C[C@@H](Nc1nc(Nc2ccc3cccnc3c2)nc(C2=C(F)C(O)CCC2)n1)C(F)(F)F (some centres unmarked) [Compound 68] | 0.435 µM | 141 µg/mL (≈ 314 µM) | < 5 µg/mL |  |  |  |  |  | 
8 | CC(C)(C)ONc1nc(Nc2ccnc(C(F)(F)F)c2)nc(C2=C(F)C(O)CCC2)n1 (centres unmarked) [Compound 71] | 0.05 µM | 64 µg/mL (≈ 145 µM) | 55 µg/mL (≈ 124 µM) | 3.05 µM |  |  |  |  | 
9 | [2H]C1([2H])CCC(c2nc(N[C@H](C)C(F)(F)F)nc(N[C@H](C)C(F)(F)F)n2)=C(F)C1O (stereo partly drawn) [Compound 82, (*)3-(4,6-Bis(((R)-1,1,1-trifluoropropan-2-yl)amino)-1,3,5-triazin-2-yl)-2-fluorocyclohex-2-en-6,6-D2-1-ol] |  |  |  |  | 93.1% | 92.9% |  | 0.146 mg/mL | 0.037 mg/mL
10 | C[C@@H](Nc1nc(C2=C(F)C(O)C(F)(F)CC2)nc(N2CC(F)(F)C2)n1)C(F)(F)F (some centres unmarked) [Compound 243] | 1.17 µM | 55 µg/mL (≈ 127 µM) | < 5 µg/mL | > 10 µM |  |  |  |  | 
